The values below come from paper PMC12284850, “In Silico Design of Antimicrobial Peptides against Carbapenem-Resistant Infections with Enhanced Activity by Nanoformulation” (ACS Applied Bio Materials, 2025).

≈ marks a conversion by molar mass, not a printed value. Read-outs that look alike come from different tables or passages of the source. Where a SMILES comes first, the peptide text is derived from it. Bridges are numbered along the chain shown (N, C = ends). [ ]: non-standard residue; d: D form. The star is where a group is joined. X1 = CC[C@H](C)CCCCC(=O)*; Dab = NCC[C@H](N)C(=O)O

For one data set, the system named is E. coil ATCC25922. Format: cell-based, E. coli. As to the method:
(§1) The broth microdilution procedure involves preparing CAMHB broth, a bacterial suspension adjusted to McFarland 0.5 (1.5 × 10^8 CFU/mL) and diluted 200×, and a drug solution at 2× the final target concentration. To achieve a 400× final bacterial dilution, add 100 μL of the drug at different doses to a 96-well plate, then 100 μL of the diluted bacterial culture. Measure the initial absorbance (0 h), incubate at 37 °C for 16–18 h, and measure the final absorbance. With no change in absorbance, the MIC signifies the absence of bacterial growth.

In another data set the test system is E. faecalis ATCC 29212. It is filed as cell-based. As to the method:
as §1

For a further data set, the system named is S. aureus ATCC29213. It is filed as cell-based. As to the method: as §1
Data set [1] has as its system K. pneumoniae ATCC BAA-1705. It is filed as cell-based. As to the method:
as §1

A further data set relates to S. aureus ATCC33592. Format: cell-based. As to the method:
as §1

A further data set has as its system P. aeruginosa ATCC27853. It is filed as cell-based. As to the method: as §1
Data set [2] deals with A. baumannii ATCC19606. It is filed as cell-based. As to the method: as §1
The test system of the next data set is S. aureus ATCC25923. It is filed as cell-based. As to the method:
as §1

Data set [3] concerns A. baumannii ATCC BAA-747. It is filed as cell-based. As to the method:
as §1

Data set [4] deals with K. pneumoniae ATCCC700603. Format: cell-based. As to the method: as §1
The next data set relates to S. aureus ATCC700698. Format: cell-based. As to the method:
as §1

The subject of the next data set is HK-2 cells. The data set is described as follows: Cytotoxicity assay (MTT). It is filed as cell-based. As to the method: (§2) We tested the cytotoxicity of several antibiotic compounds, including peptides and nanoparticles, on the human embryonic kidney cell lines HEK-293, HK-2, and […]. The cells were stored in DMEM medium and incubated at 37 °C with 5% CO2 in a humidifying environment. Using the MTT (methylthiazolyldiphenyl-tetrazolium bromide) test, cell viability was evaluated. Following a 5 × 10^3 cell/mL seeding in 96-well plates, the cells were exposed to 100 μL of samples at varying concentrations (12.5–200 μM) during 72 h at 37 °C. Later, each well is loaded with MTT solution (5 mg/mL in PBS) at a volume of 10 μL. The plates were left in the dark for 4 h. After forming formazan crystals due to the action of mitochondrial reductases in living cells, the crystals were dissolved using a solubilizing solution (pH 4.7, 40% dimethylformamide, 2% glacial acetic acid, and 16% sodium dodecyl sulfate) were shaken at 150 rpm and incubated for an hour at 37 °C. Using graphical plot analysis, the IC50 value–the concentration that results in 50% cell death–was obtained by measuring the absorbance of the dissolved formazan at 570 nm. The average of three independent tests, each carried out in triplicate, was used to display the results.

The test system of data set [5] is A. baumannii ATCC19606. It is filed as cell-based. As to conditions: 37 °C, 18 h. An excerpt: The antimicrobial mechanism of colistin against bacteria has been attributed to the interaction between positively charged colistin and negatively charged outer membrane. Colistin could be displaced by divalent ions, such as calcium ions (Ca^2+) and magnesium (Mg^2+) in a competitively way. Moreover, elevated levels of divalent cations can enhance membrane rigidity, thereby reducing drug penetration and overall efficacy. To investigate the antimicrobial mechanism of T2–02, the competitive assays using divalent calcium ion were conducted. The elevated MICs of colistin were observed by adding Ca^2+ (2 to 32 μg/mL, Table S4).
As previously reported, the MIC values of T2–02 in conjunction with different chemical agents was estimated using the broth microdilution technique. Different concentrations of T2–02 were combined with Ca2+ separately, and the effect of chemical agents on T2–02 were tracked by observing variations in their MIC values. Each solution was added to a 96-well plate at the proper concentration in 100 μL volume. Next, 100 μL of the modified bacterial solution was added to each well. The absorbance was measured after incubation at 37 °C for 0 and 18 h.

The subject of data set [6] is human red blood cells (RBCs). As to the kind of experiment: Hemolysis assay. Format: cell-based. The conditions noted are these: at 256 μg/mL, 2% hematocrit, 1 h, 37 °C, absorbance 540 nm, triplicate. As to the method:
5 . Hemolysis profiles of colistin, free T2–02, and T2–02-loaded liposomes. (A) Colistin, (B) free T2–02 peptide, and (C) T2–02-loaded liposomes (T2–02 Lipo) were incubated with human red blood cells (RBCs) at various concentrations (0–256 μg/mL) for 1 hour at 37 °C.
The hemolytic potential of colistin, T2–02, and T2–02 Lipo were assessed using a modified erythrocyte lysis assay. Briefly, fresh erythrocytes were washed twice with phosphate-buffered saline (PBS) and resuspended in 5% glucose solution to prepare a 2% hematocrit suspension. Aliquots (100 μL) of each test compound at varying concentrations were incubated with the erythrocyte suspension at 37 °C with gentle agitation (120 rpm) for 1 h. After incubation, samples were centrifuged at 700 × g for 10 min, and the supernatant was transferred to a 96-well microplate. The release of hemoglobin was quantified by measuring the absorbance at 540 nm. The percentage of hemolysis was calculated as follows: Hemolysis (%) = (OD of test sample – OD of negative control)/(OD of positive control-OD of negative control) × 100%. Each experiment was performed in triplicate, and data were expressed as mean ± standard deviation (SD).

In the next data set the test system is HEK293. Format: cell-based, human. As to conditions: 72 h. As to the method: as §2

One may read the MIC as the lowest concentration that inhibits growth of the organism. Consider `CC[C@H](C)[C@H](NC(=O)[C@H](CC(=O)O)NC(=O)[C@H](CCCCN)NC(=O)[C@H](Cc1c[nH]c2ccccc12)NC(=O)[C@H](CC(C)C)NC(=O)[C@H](C)N)C(=O)N[C@@H](CC(C)C)C(=O)N[C@@H](CCCCN)C(=O)N[C@@H](CC(N)=O)C(=O)N[C@@H](C)C(=O)NCC(=O)N[C@@H](CCCCN)C(=O)N[C@@H](C)C(=O)N[C@@H](C)C(=O)N[C@@H](CC(C)C)C(=O)N[C@@H](CC(N)=O)C(=O)N[C@@H](CCC(=O)O)C(=O)N[C@H](C(=O)N[C@@H](CC(N)=O)C(=O)N[C@@H](CCC(N)=O)C(=O)N[C@@H](CC(C)C)C(=O)N[C@H](C(=O)N[C@@H](CC(N)=O)C(=O)NCC(=O)N[C@@H](CCCNC(=N)N)C(=O)NCC(=O)N[C@@H](CC(C)C)C(=O)N[C@@H](CCCCN)C(=O)N[C@@H](CCCCN)C(=O)O)C(C)C)[C@@H](C)CC` [seq ID-1, reference compound] (H-ALWKDILKNAGKAALNEINQLVNGRGLKK-OH), for which the MIC with E. coil ATCC25922 is 64 µg/mL (≈ 20.1 µM); against E. faecalis ATCC 29212, 128 µg/mL (≈ 40.3 µM); against S. aureus ATCC29213, greater than 512 µg/mL; in data set [1], 128 µg/mL (≈ 40.3 µM); against S. aureus ATCC33592 it was greater than 512 µg/mL; against P. aeruginosa ATCC27853, 32 µg/mL (≈ 10.1 µM). The MIC in the data set on A. baumannii ATCC19606 [2] was 32 µg/mL (≈ 10.1 µM); with S. aureus ATCC25923, 128 µg/mL (≈ 40.3 µM); in data set [3] it was 32 µg/mL (≈ 10.1 µM); in [4], 128 µg/mL (≈ 40.3 µM); in the data set with S. aureus ATCC700698 it was greater than 512 µg/mL.

Turning to SPR 206 [reference compound], in the data set with HK-2 cells, the “Cytotoxicity HK-2 related to PMB” value is 11.6.

On to `CC[C@H](C)CCCCC(=O)N[C@@H](CCN)C(=O)N[C@H](C(=O)N[C@@H](CCN)C(=O)N[C@H]1CCNC(=O)[C@H]([C@@H](C)O)NC(=O)[C@H](CCN)NC(=O)[C@H](CCN)NC(=O)[C@H](CC(C)C)NC(=O)[C@@H](CC(C)C)NC(=O)[C@H](CCN)NC1=O)[C@@H](C)O` [Colistin] (X1-[Dab]T[Dab][Dab][Dab][dL]L[Dab][Dab]T; lactam 4-C (inferred); N-terminus assumed), for which the “Antibacterial activity (MIC), 20 mM CaCl2” value with A. baumannii ATCC19606 [5] (in the presence of 20 mM CaCl2, broth microdilution) came to 32 µg/mL. In addition, the “Antibacterial activity (MIC), Control” value with A. baumannii ATCC19606 [5] (without CaCl2, broth microdilution) was determined as 2 µg/mL. Besides, the Hemolysis in data set [6] is recorded as roughly 45%. Also, in the data set on HK-2 cells (ratio of HK-2 IC50 to that of polymyxin B), the “Cytotoxicity HK-2 related to PMB” value amounted to 2.6.

On to `CC[C@H](C)[C@H](NC(=O)[C@H](CCC(=O)O)NC(=O)[C@H](CC(N)=O)NC(=O)[C@H](CC(C)C)NC(=O)[C@H](C)NC(=O)[C@H](C)NC(=O)[C@H](CCCCN)NC(=O)CNC(=O)[C@H](C)NC(=O)[C@H](CC(N)=O)NC(=O)[C@H](CCCCN)NC(=O)[C@H](CC(C)C)NC(=O)[C@@H](NC(=O)[C@H](CC(=O)O)NC(=O)[C@H](CCCCN)NC(=O)[C@H](Cc1c[nH]c2ccccc12)NC(=O)[C@H](CC(C)C)NC(=O)[C@H](C)N)[C@@H](C)CC)C(=O)N[C@@H](CC(N)=O)C(=O)N[C@@H](CCC(N)=O)C(=O)N[C@@H](CC(C)C)C(=O)O` [T2] (H-ALWKDILKNAGKAALNEINQL-OH), for which the MIC with E. coil ATCC25922 is greater than 1024 µg/mL; in the data set on E. faecalis ATCC 29212 it was 1024 µg/mL (≈ 441 µM); against S. aureus ATCC29213, greater than 512 µg/mL; in data set [1] it was greater than 1024 µg/mL; with S. aureus ATCC33592, greater than 512 µg/mL; with P. aeruginosa ATCC27853, 8 µg/mL (≈ 3.44 µM). The MIC against A. baumannii ATCC19606 [2] is 8 µg/mL (≈ 3.44 µM); with S. aureus ATCC25923 it was 1024 µg/mL (≈ 441 µM); in data set [3] it was 8 µg/mL (≈ 3.44 µM); in data set [4], greater than 512 µg/mL; against S. aureus ATCC700698, greater than 512 µg/mL. Further, in the data set with HEK293, the “IC50 HEK293” value is greater than 1024 µg/mL.

Turning to `CC[C@H](C)[C@H](NC(=O)[C@H](CCC(=O)O)NC(=O)[C@H](CC(N)=O)NC(=O)[C@H](CC(C)C)NC(=O)[C@H](C)NC(=O)[C@H](C)NC(=O)[C@H](CCCCN)NC(=O)CNC(=O)[C@H](CCCNC(=N)N)NC(=O)[C@H](CCCNC(=N)N)NC(=O)[C@H](CCCCN)NC(=O)[C@H](CC(C)C)NC(=O)[C@H](CC(C)C)NC(=O)[C@H](CCCNC(=N)N)NC(=O)[C@H](CCCCN)NC(=O)[C@H](Cc1c[nH]c2ccccc12)NC(=O)[C@H](CC(C)C)NC(=O)[C@H](C)N)C(=O)N[C@@H](CC(N)=O)C(=O)N[C@@H](CCC(N)=O)C(=O)N[C@@H](CC(C)C)C(=O)O` [T2–01] (H-ALWKRLLKRRGKAALNEINQL-OH), the MIC is greater than 512 µg/mL against E. coil ATCC25922; greater than 512 µg/mL in the data set on E. faecalis ATCC 29212; 512 µg/mL (≈ 205 µM) against S. aureus ATCC29213; greater than 512 µg/mL in data set [1]; greater than 512 µg/mL against S. aureus ATCC33592; 64 µg/mL (≈ 25.7 µM) against P. aeruginosa ATCC27853. Also, the MIC was 64 µg/mL (≈ 25.7 µM) against A. baumannii ATCC19606 [2]; greater than 512 µg/mL against S. aureus ATCC25923; 64 µg/mL (≈ 25.7 µM) in data set [3]; greater than 512 µg/mL in data set [4]; greater than 512 µg/mL against S. aureus ATCC700698.
